The values that follow come from US20050085426A1, “Acid-sensitive compounds, preparation and use thereof” (priority 2000, published 2005).

The test system of data set [1] is DNA. Put plainly: Ethidium bromide fluorescence test of DNA compaction and release at pH 5. In kind it is physicochemical. Particulars: for variation in fluorescence over time (DNA not completely compacted): 0.4 nmol lipid/μg of DNA. From the text: This can be easily shown by a fluorescence test with ethidium bromide (EtBr): the absence of fluorescence reflects the absence of free DNA, which means that the DNA is compacted.
In the text which follows, the two forms Syn and Trans of the acid-sensitive compound A as prepared in example 3 were used and the non-acid-sensitive analog described in the publication WO 97/18185, and which has the formula: H2N—(CH2)3—NH—(CH2)4—NH—(CH2)3—NH—CH2—CO-Gly-N[(CH2)17—CH3]2 was used as control. This non-acid-sensitive analog is called in the text which follows “control cationic lipid”.
The DNA is brought into contact with increasing quantities of control cationic lipid or of acid-sensitive compound A Syn or Trans, by mixing an equal volume of lipid solutions of different titers with the DNA solutions. Samples of 800 μl of DNA complexes having a concentration of 10 μg/ml are thus prepared in a sodium chloride solution at 150 mM with increasing quantities of control cationic lipid or of acid-sensitive compound A Syn or Trans.
At time t=0, 200 μl of buffer having a concentration of 0.1 mol/l at pH 5 are added to these samples and the samples are stored in an oven at 37° C. The fluorescence with ethidium bromide (EtBr) is measured over time (measurement at 20° C.) using a FluoroMax-2 (Jobin Yvon-Spex), with excitation and emission wavelengths of 260 nm and 590 nm respectively. The slit widths for excitation and for emission are set at 5 nm. The fluorescence value is recorded after addition of 3 μl of ethidium bromide at 1 g/l per ml of DNA/cationic lipid or DNA/acid-sensitive compound solution (at 0.01 mg of DNA/ml).

The test system of data set [2] is HeLa cells. Put plainly: In vitro transfection of HeLa cells, luciferase activity. In kind it is cell-based, human. As to conditions: for transfection activity: 1.0 to 10.0 nmol of lipid/μg of DNA; for effect of the presence of serum on transfection: with serum (10% FCS). How it is done: This study was carried out at 4 different charge ratios: 1.0 or 4.0 or 6.0 or 10.0 nmol of lipid/μg of DNA. Each of these conditions was tested with and without fetal calf serum (“+ or − Serum”)
Culture of the cells: HeLa cells (American type Culture Collection (ATCC) Rockville, Md., USA) derived from a human cervical epithelium carcinoma, are cultured in the presence of a medium of the MEM (“minimum essential medium”) type with addition of 2 mM L-glutamine, 50 units/ml of penicillin, and 50 units/ml of streptomycin. The medium and the additives are obtained from Gibco/BRL life Technologies (Gaithersburg, Md., USA). The cells are cultured in flasks at 37° C. and at 5% carbon dioxide in an incubator.
Transfection: a day before the transfection, the HeLa cells are transferred into 24-well plates with a cell number of 30,000 to 50,000 per well. These dilutions represent approximately 80% confluence after 24 hours.
For the transfection, the cells are washed twice and incubated at 37° C. with 500 μl of medium with serum (10% FCS v/v) or without serum.
50 μl of complexes containing 0.5 μg of plasmid DNA are added to each well (the complexes are prepared at least 30 minutes before the addition to the well). After two hours at 37° C., the plates without serum are supplemented with 10% (v/v) of FCS (“Fetal Calf Serum”).
All the plates are placed for 36 hours at 37° C. and at 5% carbon dioxide.
Determination of the luciferase activity: Briefly, the transfected cells are washed twice with 500 μl of PBS (phosphate buffer) and then lysed with 250 μl of reagent (Promega cell culture lysis reagent, from the Luciferase Assay System kit).
An aliquot of 10 μl of supernatant of the lysate centrifuged (12,000×g) for 5 minutes at 4° C. is measured with the Wallac Victor2 luminometer (1420 Multilabel couter).
The luciferase activity is assayed by the emission of light in the presence of luciferin, of coenzyme A and of ATP for 10 seconds and expressed relative to 2000 treated cells. The luciferase activity is thus expressed as Relative Light Unit (“RLU”: “Relative light unit”) and normalized with the concentration of proteins in the sample obtained using a Pierce BCA kit (Rockford, Ill., USA).

The subject of data set [3] is DNA/control cationic lipid nucleolipid complexes. The data set is described as follows: Size of nucleolipid particles as a function of pH and time (stability of acid-sensitive compounds). The data set is classed as physicochemical. As to conditions: for sensitivity at acidic pH values: pH 4, pH 5, pH 6; for stability at physiological pH: pH 7.4. How it is done: To this effect, the variation of the size of nucleolipid complexes (identical to those used in examples 9 and 10) is measured as a function of the pH and time, for various acid-sensitive pegoylated lipids, which makes it possible to cover different ranges of sensitivity.

Data set [4] has as its system control cationic lipid/DNA particles. The data set is described as follows: Colloidal stabilization of DNA/control cationic lipid particles, hydrodynamic diameter. In kind it is physicochemical. As to conditions: as nonionic surfactant for nucleolipid particles. From the text: In the present example, the cationic lipid used is that already used in examples 7 and 8 and described in the publication WO 97/18185 under the formula: H2N—(CH2)3—NH—(CH2)4—NH—(CH2)3—NH—CH2—CO-Gly-N[(CH2)17—CH3]2 (control cationic lipid).
Compounds C and D prepared in example 5 are used as acid-sensitive pegoylated lipids. As controls, there are used BRIJ 700 (SIGMA) and the pegoylated lipid of formula: [drawing 27] which are non-acid-sensitive analogs of compounds C and D, respectively, and which are known as nonionic surfactants (see for example the publication WO 98/34648). The two controls are used at 10 g/l in water.
(§1) All these samples have a control cationic lipid/DNA ratio of 1.5 (in nmol of lipid per μg of DNA) and contain increasing quantities of pegoylated lipid (expressed as polymer/DNA weight/weight ratio).
The measurement of the hydrodynamic diameter is made with a Coulter N4Plus apparatus using plastic cuvettes (four transparent sides) filled with 800 μl of the different solutions containing 0.01 mg of DNA/ml, the measurement being carried out at 90° in unimodal mode.

For data set [5], the system named is control cationic lipid/DNA nucleolipid particles. Put plainly: Size of nucleolipid particles as a function of time at pH 5. The data set is classed as physicochemical. As to conditions: for aggregation of the particles after 4 hours: pH 5, 37° C. The procedure: The acid-sensitive pegoylated lipid used in this example is the compound D prepared in example 5, as well as its non-acid-sensitive analog called “Analog D” in the preceding example and in the text which follows.
as §1
The size of the particles is measured as a function of time.

The subject of data set [6] is Balb/C mice carrying subcutaneous M109 tumors. Put plainly: In vivo gene transfer of DNA/cationic lipid/DOPE complexes, CAT assay. The procedure:
The cationic lipid of formula: [drawing 28] and the neutral lipid DOPE (obtained from Avanti Polar Lipids, Birmingham, Ala.) where it is dissolved in chloroform and then mixed in equimolar quantities.
Appropriate quantities of compound D were dissolved in chloroform and added to the mixture. The quantities of compound D used are given in mol % of the total quantity of lipid.
The organic solvent is then evaporated under an argon stream so that a thin lipid film forms at the bottom of the tube. This film is dried under vacuum for at least 1 hour and then rehydrated with a 20 mM HEPES buffer at pH 7.4 and 5% dextrose, at 4° C. for 2 hours. The lipid suspension thus obtained is heated at 50° C. for 30 minutes, and then sonicated for 5 minutes so as to form a homogeneous suspension of liposomes of about 100 nm.
The DNA used is plasmid DNA containing the CAT gene under the control of a CMV promoter.
Equivalent volumes of liposome suspension (in appropriate concentration) are rapidly added to a DNA solution while mixing rapidly and vigorously. Overall, 1 μg of DNA forms a complex with 5 nmol of cationic lipid. The complexes formed have a diameter of approximately 100 to 240 nm.
About 6 week old female Balb/C mice are used in all the experiments. Each mouse receives a subcutaneous injection with 10^6 M109 cells in the right flank. When the tumours reach a size of about 300 mm^3, the mice receive 200 μl of DNA/lipid complexes containing 50 μg of DNA, by intravenous injection. The tissues are removed 24 hours after injection and stored at −70° C. until used.
The tissues are homogenized using a “FastPrep Cell Disrupter FP120” apparatus (Bio 101/Savant). The samples are then centrifuged at 1 000 revolutions/minute for 5 minutes. The quantity of CAT transgene expressed is determined using a standard CAT ELISA procedure (Roche, Ind.).

Regarding `CCCCCCCCCCCCCCCCCCN(CCCCCCCCCCCCCCCCCC)C(=O)CNC(=O)CNCCCNCCCCNCCCN` [control cationic lipid, H2N—(CH2)3—NH—(CH2)4—NH—(CH2)3—NH—CH2—CO-Gly-N[(CH2)17—CH3]2, reference compound], the “variation in fluorescence over time (DNA not completely compacted)” value in data set [1] (pH 5, 37° C.) was “no significant variation in fluorescence”. In data set [2], the transfection activity entry is on record as “high transfection activity” and the “effect of the presence of serum on transfection” value was “inhibition of transfection”.

Take `CCCCCCCCCCCCCCCCCCN(CCCCCCCCCCCCCCCCCC)C(=O)CCCOC1OCC(CNC(=O)CNCCCNCCCCNCCCN)O1` (stereo not drawn) [Compound A Syn, 4-{4-[(2-{3-[4-(3-amino-propylamino)butylamino]propyl-amino}acetylamino)methyl]-[1,3]dioxolan-2-yloxy}-N,N-dioctadecylbutyramide tetraacetate]: the “variation in fluorescence over time (DNA not completely compacted)” value in data set [1] (pH 5, 37° C.) was “no significant variation in fluorescence”. Moreover, the “release of the DNA over time (increase in fluorescence)” value in data set [1] (pH 5, 37° C., 1.7 and 6.0 nmol lipid/μg of DNA) is reported as “release the DNA over time”. The “time of release of DNA after the addition of acid” value in data set [1] (pH 5 and 37° C.) is “a few hours after the addition of acid”. For the same molecule, in data set [2], the transfection activity result is on record as “high transfection activity” and the “effect of the presence of serum on transfection” value is “inhibition of transfection”.

Consider “methoxy-(polyethylene glycol 5000)-N-(2-methyl-2-octadecyloxy-[1,3]dioxan-5-yl)amide [Compound E]”, for which, in data set [3], the “sensitivity at acidic pH values” is given as “high sensitivity at acidic pH values” and the “stability at physiological pH” value was “relatively stable at physiological pH”. Also, in data set [3] (pH 6, 37° C.), the “start of aggregation of the nucleolipid particles after the acidification” value is “about 1 hour”.

In the case of “methoxy-(polyethylene glycol 5000)-(N-(2-octadecyloxy-[1,3]dioxolan-4-ylmethyl)amide [Compound C]”, in data set [4], the colloidal stabilizing power entry is “comparable to that of the stable nonionic surfactants”. Besides, in data set [3], the “sensitivity at acidic pH values” is given as “high sensitivity at acidic pH values” and the “stability at physiological pH” value is on record as “relatively stable at physiological pH”. In data set [3] (pH 6, 37° C.), the “duration of stabilization of the nucleolipid particles” value is “at least 4 hours”.

For “methoxy-(polyethylene glycol 5000)-N-{2-[17-(1,5-dimethylhexyl)-10,13-dimethyl-2,3,4,7,8,9,10,11,12,13,14,15,16,17-tetradecahydro-1H-cyclopenta[a]-phenanthren-3-yloxy]-[1,3]dioxolan-4-ylmethyl}amide [Compound D]”, in data set [4], the colloidal stabilizing power result was “comparable to that of the stable nonionic surfactants”. Moreover, the “aggregation of the particles after 4 hours” value in data set [5] (pegoylated lipid/DNA ratio of 0.5) was “completely formed into aggregates”; in data set [5] (pegoylated lipid/DNA ratio of 1), “not at all or only slightly”. Further, the “colloidal stability of the particles at time t=0” value in data set [5] (pH 5, t=0, regardless of the compound/DNA ratio) is reported as “the same stability”. Besides, the “increase of the gene transfer activity specific to the tumors relative to the lungs (factor)” value in data set [6] (M109 tumors versus lungs) amounted to 40. The “gene transfer in the tumors” value in data set [6] (M109 tumors, intravenous injection, 50 μg of DNA, 24 hours after injection, increasing quantity of pegoylated lipid) was “gene transfer does not appear to be affected in the tumors”. The “transfection activity in the lungs” value in data set [6] (intravenous injection, 50 μg of DNA, tissues 24 hours after injection, increasing quantity of pegoylated lipid) was “the transfection activity is also inhibited in the lungs”.
